The values that follow come from patent publication US20050065596A1, “Stents capable of controllably releasing histone deacetylase inhibitors” (priority 2002, published 2005).

Common to all, as to assay type: cell-based
In data set [1] the test system is Human aortic SMCs. The experiment in a line: Morphological analysis of human aortic SMCs after one day incubation with drug. The note with it: FIG. 12; for morphological changes observed in a 40× microscope field: one day incubation, 100 nM and 500 nM TSA, 10 nM RPM, 50 nM Paclitaxel. On the procedure: (§1) Human aortic SMCs were obtained from BioWhittaker Molecular Applications, Inc. (Clonetics, CC-2571), cultured in Smooth Muscle Medium-2 (BioWhittaker Molecular Applications, Inc., CC-3182), and maintained at 37° C. in humidified 95% air/5% CO2. Human aortic SMCs of passages 8-9 were used in the following experiments.
(§2) Human aortic SMCs cells were seeded, at a density of 6×10^3 cells/well, in a 24-well plate (about 3×10^3 cells/cm^2, quadruplicates). Following cell attachment for 24 hours, the above drugs were added to the cells, to achieve the following final concentrations: 100 nM and 500 nM of TSA, 10 nM of RPM, and 50 nM of Paclitaxel.
Following a one day incubation with the drug, the morphological changes in the cells were evaluated under a microscope.

Data set [2] concerns Human aortic SMCs. The experiment in a line: MTT assay of cell proliferation. How it is done: as §1
(§3) Cell proliferation was measured by MTT assay and cell counting.
as §2
Following three additional days of incubation, 50 μl MTT (methylthiazoletetrazolium, 5 mg/ml in sterile H2O) were added in 0.5 ml medium to each well, and the cells were incubated at 37° C. for 4 hours. The medium was then aspirated, and the cells were dissolved in 300 μl 0.1 N HCl/isopropanol, mixed thoroughly, and a 100 μl portion of the mixture was transferred into a 96-well plate;
The 96-well plate was applied to a micro-plate reader and the absorbance at 570 nm was read. The average reading of wells containing only medium was set as the Control. For each sample, the proliferation rate was determined by the following equation: (Reading/Control)×100=Proliferation Rate (% of Control).

Data set [3] deals with Human aortic SMCs. The experiment in a line: Cell counting (growth curves). The settings on record: 50 nM TSA; days 0-14, medium with TSA replaced every 2-3 days; vs control cells; FIG. 14. On the procedure: as §1, §3
Human aortic SMCs cells were seeded, at a density of […], in a 24-well plate (about 1.5×10^3 cells/cm^2, in triplicates). Following cell attachment for 24 hours, TSA was added to achieve a final concentration of 50 nM.
Every 2-3 days, the medium was removed and replaced with a fresh medium containing TSA. Control cells were treated with medium without TSA.
On days 0, 1, 2, 3, 6, 9, and 14 post-treatment, the cells were trypsinized and counted with a hemacytometer.

Each structure is given as a SMILES string.

As for `CC(=O)O[C@H]1C(=O)[C@@]2(C)[C@H]([C@H](OC(=O)c3ccccc3)[C@]3(O)C[C@H](OC(=O)[C@H](O)[C@@H](NC(=O)c4ccccc4)c4ccccc4)C(C)=C1C3(C)C)[C@]1(OC(C)=O)CO[C@@H]1C[C@@H]2O` [Paclitaxel], the “morphological changes observed in a 40× microscope field” value in the data set with Human aortic SMCs [1] is “Rounded up pro-apoptotic cells appeared”. In addition, the “cytotoxicity on SMCs” value in the data set with Human aortic SMCs [2] (50 nM Paclitaxel, before the application of MTT assay) is “high cytotoxicity on SMCs and caused cell death”.

For the molecule `CC(/C=C/C(=O)NO)=C\[C@@H](C)C(=O)c1ccc(N(C)C)cc1` [TSA, Trichostatin A], the “nature of the inhibitory effect on SMCs” value in the data set with Human aortic SMCs [1] (concluded from the morphological analysis) is given as “mainly cytostatic”. In addition, the “morphological changes observed in a 40× microscope field” value in the data set on Human aortic SMCs [1] is “No morphological changes”. Also, the “inhibitory effect on the growth of the human SMCs (proliferation rate, MTT)” value in the data set with Human aortic SMCs [2] (100 nM TSA and 500 nM TSA, four days incubation, FIG. 13) was “inhibits SMC proliferation in vitro in a dose-dependent mainer”. In addition, the “continuous effect on SMCs growth (growth curves, cell counting)” value in the data set on Human aortic SMCs [3] was “significant inhibitory effect”.
